Reference: US8853420B2, “Compounds” (Boehringer Ingelheim International GmbH, priority 2008, dated 2014)
Each block holds one compound with its values, some of them ahead of it.

Target: T1, Xenopus laevis Aurora B/INCENP complex (Xenopus laevis, UniProt Q6DE08)
T1 construct: equipped at the N-terminal position with a GST tag (amino acids 60-361); GST (N, cleaved yes); made in house; host or cells: E. coli BL21 (DE3)
Assay: Aurora-B kinase assay (radioactive enzyme inhibition assay)
Format: biochemical
Conditions: test substance at 1 μM; percentage of the positive control (maximum value without test substance)
From the text: Example Aurora-B Kinase Assay
A radioactive enzyme inhibition assay was developed using E. coli-expressed recombinant Xenopus laevis Aurora B wild-type protein equipped at the N-terminal position with a GST tag (amino acids 60-361) in a complex with Xenopus laevis INCENP (amino acids 790-847), which is obtained from bacteria and purified. In equivalent manner a Xenopus laevis Aurora B mutant (G96V) in a complex with Xenopus laevis INCENP^790-847 may also be used.
Expression and Purification
The coding sequence for Aurora-B^60-361 from Xenopus laevis is cloned into a modified version of pGEX-6T (Amersham Biotech) via BamHI and SalI cutting sites. The vector contains two cloning cassettes which are separated by a ribosomal binding site, allowing bi-cistronic expression. In this configuration Xenopus laevis Aurora B is expressed by the first cassette, and the Xenopus laevis INCENP^790-847 is expressed by the second cassette. The resulting vector is pAUB-IN^847.
First of all the E. coli strain BL21 (DE3) is co-transformed with pUBS520 helper plasmid and pAUB-IN^847, after which protein expression is induced using 0.3 mM IPTG at an OD600 of 0.45-0.7. The expression is then continued for approx. 12-16 h at 23-25° C. with agitation.
The bacteria are then removed by centrifuging and the pellet is lysed in lysis buffer (50 mM Tris/Cl pH 7.6, 300 mM NaCl, 1 mM DTT, 1 mM EDTA, 5% glycerol, Roche Complete Protease Inhibitor tablets) using ultrasound, using 20-30 mL lysis buffer per liter of E. coli culture. The lysed material is freed from debris by centrifugation (12000 rpm, 45-60 min, JA20 rotor). The supernatant is incubated with 300 μL of equilibrated GST Sepharose Fast Flow (Amersham Biosciences) per liter of E. coli culture for 4-5 h at 4° C. Then the column material is washed with 30 volumes of lysis buffer and then equilibrated with 30 volumes of cleavage buffer (50 mM Tris/Cl pH 7.6, 150 mM NaCl, 1 mM DTT, 1 mM EDTA). To cleave the GST tag from Aurora B, 10 units of Prescission Protease (Amersham Biosciences) are used per milligram of substrate and the mixture is incubated for 16 h at 4° C. The supernatant which contains the cleavage product is loaded onto a 6 mL Resource Q column (Amersham Biosciences) equilibrated with ion exchange buffer (50 mM Tris/Cl pH 7.6, 150 mM NaCl, 1 mM DTT, 1 mM EDTA). The Aurora B/INCENP complex is caught as it flows through, then concentrated and loaded onto a Superdex 200 size exclusion chromatography (SEC) column equilibrated with SEC buffer (10 mM Tris/Cl pH 7.6, 150 mM NaCl, 1 mM DTT, 1 mM EDTA). Fractions which contain the AuroraB/INCENP complex are collected and concentrated using Vivaspin concentrators (molecular weight exclusion 3000-5000 Da) to a final concentration of 12 mg/mL. Aliquots (e.g. 240 ng/μL) for kinase assays are transferred from this stock solution into freezing buffer (50 mM Tris/Cl pH 8.0, 150 mM NaCl, 0.1 mM EDTA, 0.03% Brij-35, 10% glycerol, 1 mM DTT) and stored at −80° C.
Test substances are placed in a polypropylene dish (96 wells, Greiner #655 201), in order to cover a concentration frame of 10 μM-0.0001 μM. The final concentration of DMSO in the assay is 5%. 30 μL of protein mix (50 mM tris/Cl pH 7.5, 25 mM MgCl2, 25 mM NaCl, 167 μM ATP, 10 ng Xenopus laevis Aurora B/INCENP complex in freezing buffer) are pipetted into the 10 μl of test substance provided in 25% DMSO and this is incubated for 15 min at RT. Then 10 μL of peptide mix (100 mM tris/Cl pH 7.5, 50 mM MgCl2, 50 mM NaCl, 5 μM NaF, 5 μM DTT, 1 μCi gamma-P33-ATP [Amersham], 50 μM substrate peptide [biotin-[…] or multimers thereof, or biotin-[…] or multimers thereof, or biotin-[…]]) are added. The reaction is incubated for 75 min (ambient temperature) and stopped by the addition of 180 μL of 6.4% trichloroacetic acid and incubated for 20 min on ice. […]

T1 sequence (Q6DE08 60-361): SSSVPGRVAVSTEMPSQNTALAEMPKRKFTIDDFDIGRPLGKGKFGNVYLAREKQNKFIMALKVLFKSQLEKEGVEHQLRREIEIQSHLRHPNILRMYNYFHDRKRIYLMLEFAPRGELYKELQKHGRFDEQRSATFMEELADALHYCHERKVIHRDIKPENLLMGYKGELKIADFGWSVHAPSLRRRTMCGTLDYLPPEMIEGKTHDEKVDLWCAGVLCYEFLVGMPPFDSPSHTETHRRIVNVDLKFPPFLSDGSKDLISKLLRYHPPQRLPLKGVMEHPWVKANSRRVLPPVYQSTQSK
T1 sequence (O13024 790-847 partner limits assumed): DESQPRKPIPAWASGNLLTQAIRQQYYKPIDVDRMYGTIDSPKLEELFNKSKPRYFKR

Structure (SMILES): CC(C)Nc1ncc(-c2ccc3c(c2)NC(=O)/C3=C(\NC2CCN(C)CC2)c2ccccc2)cn1 [Example 79]
remaining activity at 1 µM: 103%

Structure (SMILES): COc1cc(N/C(=C2\C(=O)Nc3cc(-c4cnc(NC(C)C)nc4)ccc32)c2ccccc2)ccc1C(=O)O [Example 80]
remaining activity at 1 µM: 2.32%

Structure (SMILES): CC(C)Nc1ncc(-c2ccc3c(c2)NC(=O)/C3=C(\Nc2ccc(C(C)(C)C(=O)O)cc2)c2ccccc2)cn1 [Example 81]
remaining activity at 1 µM: 1.26%

Structure (SMILES): COC(=O)C(C)(C)c1ccc(N/C(=C2\C(=O)Nc3cc(-c4cnc(NC(C)C)nc4)ccc32)c2ccccc2)cc1 [Example 82]
remaining activity at 1 µM: 5.13%

Structure (SMILES): CC(C)Nc1ncc(-c2ccc3c(c2)NC(=O)/C3=C(\Nc2ccc(C(=O)O)cc2)c2ccccc2)cn1 [Example 83]
remaining activity at 1 µM: 1.04%

Structure (SMILES): COC(=O)c1ccc(N/C(=C2\C(=O)Nc3cc(-c4cnc(NC(C)C)nc4)ccc32)c2ccccc2)cc1 [Example 84]
remaining activity at 1 µM: 65.2%

Structure (SMILES): CNc1ccc(N/C(=C2\C(=O)Nc3cc(-c4cnc(NC(C)C)nc4)ccc32)c2ccccc2)cc1 [Example 85]
remaining activity at 1 µM: 50.3%

Structure (SMILES): CC(C)Nc1ncc(-c2ccc3c(c2)NC(=O)/C3=C(\Nc2ccc(N3CCN(C)CC3)nc2)c2ccccc2)cn1 [Example 86]
remaining activity at 1 µM: 16.8%

Structure (SMILES): Cc1cc(N/C(=C2\C(=O)Nc3cc(-c4cnc(NC(C)C)nc4)ccc32)c2ccccc2)ccn1 [Example 87]
remaining activity at 1 µM: 2.67%

Structure (SMILES): CC(C)Nc1ncc(-c2ccc3c(c2)NC(=O)/C3=C(\Nc2ccc(OCCN3CCCC3)cc2)c2ccccc2)cn1 [Example 88]
remaining activity at 1 µM: 3.13%

Structure (SMILES): CC(C)Nc1ncc(-c2ccc3c(c2)NC(=O)/C3=C(\Nc2ccc(OCCCN(C)C)cc2)c2ccccc2)cn1 [Example 89]
remaining activity at 1 µM: 5.97%

Structure (SMILES): CC(C)Nc1ncc(-c2ccc3c(c2)NC(=O)/C3=C(\Nc2cccc(CN3CCCC3)c2)c2ccccc2)cn1 [Example 91]
remaining activity at 1 µM: 9.48%

Structure (SMILES): CC(C)Nc1ncc(-c2ccc3c(c2)NC(=O)/C3=C(\Nc2ccc(N3CCN(C)CC3)cc2)c2ccccc2)cn1 [Example 92]
remaining activity at 1 µM: 3.85%

Structure (SMILES): CC(C)Nc1ncc(-c2ccc3c(c2)NC(=O)/C3=C(\Nc2ccc(N3CCN(C)[C@@H](C)C3)cc2)c2ccccc2)cn1 [Example 93]
remaining activity at 1 µM: 2.92%

Structure (SMILES): CC(C)Nc1ncc(-c2ccc3c(c2)NC(=O)/C3=C(\Nc2ccc3c(c2)CN(C)C3)c2ccccc2)cn1 [Example 94]
remaining activity at 1 µM: 5.83%

Structure (SMILES): CC(C)Nc1ccc(-c2ccc3c(c2)NC(=O)/C3=C(\Nc2ccc(C(C)(C)C(=O)N3CCN[C@@H](C)C3)cc2)c2ccccc2)cn1 [Example 99]
remaining activity at 1 µM: 4.64%

Structure (SMILES): CC(C)Nc1ccc(-c2ccc3c(c2)NC(=O)/C3=C(\Nc2ccc(C(C)(C)C(=O)N3CC[C@H](N(C)C)C3)cc2)c2ccccc2)cn1 [Example 100]
remaining activity at 1 µM: 3.36%

Structure (SMILES): CC(C)Nc1ccc(-c2ccc3c(c2)NC(=O)/C3=C(\Nc2ccc(C(C)(C)C(=O)N3CC[C@@H](N(C)C)C3)cc2)c2ccccc2)cn1 [Example 101]
remaining activity at 1 µM: 3.62%

Structure (SMILES): CC(C)Nc1ccc(-c2ccc3c(c2)NC(=O)/C3=C(\Nc2ccc(C(C)(C)C(=O)NC3CCN(C)CC3)cc2)c2ccccc2)cn1 [Example 102]
remaining activity at 1 µM: 2.07%

Structure (SMILES): CC(C)Nc1ccc(-c2ccc3c(c2)NC(=O)/C3=C(\Nc2ccc(C(C)(C)C(=O)N(C)C3CCN(C)CC3)cc2)c2ccccc2)cn1 [Example 103]
remaining activity at 1 µM: 3.84%

Structure (SMILES): CCN1CCC2(CCN(C(=O)c3ccc(N/C(=C4\C(=O)Nc5cc(-c6ccc(NC(C)C)nc6)ccc54)c4ccccc4)cc3OC)C2)C1 (centres unmarked) [Example 104]
remaining activity at 1 µM: 1.71%

Other lines, results leading:

remaining activity at 1 µM: 1.57%
Structure (SMILES): COc1cc(N/C(=C2\C(=O)Nc3cc(-c4ccc(NC(C)C)nc4)ccc32)c2ccccc2)ccc1C(=O)N1CCCN(C)CC1 [Example 105]

remaining activity at 1 µM: 2.94%
Structure (SMILES): COc1cc(N/C(=C2\C(=O)Nc3cc(-c4ccc(NC(C)C)nc4)ccc32)c2ccccc2)ccc1C(=O)N1CCN(C(C)C)CC1 [Example 106]

remaining activity at 1 µM: 1.66%
Structure (SMILES): COc1cc(N/C(=C2\C(=O)Nc3cc(-c4ccc(NC(C)C)nc4)ccc32)c2ccccc2)ccc1C(=O)N1CCC(N(C)C)CC1 [Example 107]

remaining activity at 1 µM: 1.45%
Structure (SMILES): COc1cc(N/C(=C2\C(=O)Nc3cc(-c4ccc(NC(C)C)nc4)ccc32)c2ccccc2)ccc1C(=O)N1C[C@H]2C[C@@H]1CN2C [Example 108]

remaining activity at 1 µM: 2.08%
Structure (SMILES): COc1cc(N/C(=C2\C(=O)Nc3cc(-c4ccc(NC(C)C)nc4)ccc32)c2ccccc2)ccc1C(=O)N1CCN(C)CC1 [Example 109]

remaining activity at 1 µM: 1.54%
Structure (SMILES): COc1cc(N/C(=C2\C(=O)Nc3cc(-c4ccc(NC(C)C)nc4)ccc32)c2ccccc2)ccc1C(=O)N1CC[C@H](N(C)C)C1 [Example 110]

remaining activity at 1 µM: 2.35%
Structure (SMILES): COc1cc(N/C(=C2\C(=O)Nc3cc(-c4ccc(NC(C)C)nc4)ccc32)c2ccccc2)ccc1C(=O)N(C)CCN(C)C [Example 111]

remaining activity at 1 µM: 1.7%
Structure (SMILES): COc1cc(N/C(=C2\C(=O)Nc3cc(-c4ccc(NC(C)C)nc4)ccc32)c2ccccc2)ccc1C(=O)N(C)C1CCN(C)CC1 [Example 112]

remaining activity at 1 µM: 4.25%
Structure (SMILES): CCN1CCN(C(=O)c2ccc(N/C(=C3\C(=O)Nc4cc(-c5ccc(NC(C)C)nc5)ccc43)c3ccccc3)cc2)CC1 [Example 113]

remaining activity at 1 µM: 7.11%
Structure (SMILES): CC(C)CN1CCN(C(=O)c2ccc(N/C(=C3\C(=O)Nc4cc(-c5ccc(NC(C)C)nc5)ccc43)c3ccccc3)cc2)CC1 [Example 114]

remaining activity at 1 µM: 3.25%
Structure (SMILES): CC(C)Nc1ccc(-c2ccc3c(c2)NC(=O)/C3=C(\Nc2ccc(C(=O)N3CCN[C@H](C)C3)cc2)c2ccccc2)cn1 [Example 115]

remaining activity at 1 µM: 3.03%
Structure (SMILES): CCN1CCC2(CCN(C(=O)c3ccc(N/C(=C4\C(=O)Nc5cc(-c6ccc(NC(C)C)nc6)ccc54)c4ccccc4)cc3)C2)C1 (centres unmarked) [Example 117]

remaining activity at 1 µM: 4.44%
Structure (SMILES): CC(C)Nc1ccc(-c2ccc3c(c2)NC(=O)/C3=C(\Nc2ccc(C(=O)N3CCN(CC4CC4)CC3)cc2)c2ccccc2)cn1 [Example 118]

remaining activity at 1 µM: 3.54%
Structure (SMILES): CC(C)Nc1ccc(-c2ccc3c(c2)NC(=O)/C3=C(\Nc2ccc(C(=O)N3CCCN(C4CC4)CC3)cc2)c2ccccc2)cn1 [Example 119]

remaining activity at 1 µM: 2.75%
Structure (SMILES): CC(C)Nc1ccc(-c2ccc3c(c2)NC(=O)/C3=C(\Nc2ccc(C(=O)N3CCCN(C)CC3)cc2)c2ccccc2)cn1 [Example 120]

remaining activity at 1 µM: 3.31%
Structure (SMILES): CC(C)Nc1ccc(-c2ccc3c(c2)NC(=O)/C3=C(\Nc2ccc(C(=O)N3CCC(N4CCOCC4)CC3)cc2)c2ccccc2)cn1 [Example 121]

remaining activity at 1 µM: 4%
Structure (SMILES): CC(C)Nc1ccc(-c2ccc3c(c2)NC(=O)/C3=C(\Nc2ccc(C(=O)N3CCC(N4CCCC4)CC3)cc2)c2ccccc2)cn1 [Example 122]

remaining activity at 1 µM: 2.69%
Structure (SMILES): CC(C)Nc1ccc(-c2ccc3c(c2)NC(=O)/C3=C(\Nc2ccc(C(=O)N3CCN(C(C)C)CC3)cc2)c2ccccc2)cn1 [Example 123]

remaining activity at 1 µM: 3.38%
Structure (SMILES): CC(C)Nc1ccc(-c2ccc3c(c2)NC(=O)/C3=C(\Nc2ccc(C(=O)N3C[C@@H](C)N[C@@H](C)C3)cc2)c2ccccc2)cn1 [Example 124]

remaining activity at 1 µM: 8.83%
Structure (SMILES): CC(C)Nc1ccc(-c2ccc3c(c2)NC(=O)/C3=C(\Nc2ccc(C(=O)N3CCN(CC(F)(F)F)CC3)cc2)c2ccccc2)cn1 [Example 125]
